US11883418B2, “Compound TSYI-ZAC for inhibiting dengue virus infection and medicinal use thereof” (Syi Biotechnology Co., Ltd., priority 2022, dated 2024)
Where “and” joins values, the source holds several entries; their conditions need not be identical. Equal values may be shown once.

Experiments:
[1] = system: IL-8; test: IL-8 expression in infected supernatant of DENV-infected Meg-01 cells, enzyme immunoassay; type: cell-based, human; conditions: after dengue virus infection, extract at IC10 concentration
Protocol: (§1) 2×10^4 Meg-01 cells are lysed in a RPMI culture medium containing 10% fetal bovine serum for in vitro infection with dengue virus. The infection condition is 1 MOI, a total volume of virus sap and cell sap is 2 ml, and the selected virus is dengue virus type 2 (DENV-2), strain 16681. The infection mixture is cultured in a 37° C. incubator for 2 hours, and the tube is shaken once every 30 minutes to increase a chance of virus contacting the cells. After 2 hours, centrifuge (600 rpm, 6 minutes) with a centrifuge to remove the virus that is not in contact with the cells, and re-lyse the cells with an appropriate amount of a cell culture medium, and then divide the cells into a cell culture medium (2 ml) or into a cell culture medium additional added with the Antrodia camphorata extract ZAC and the Antrodia camphorata extract YS-1, the centrifuge tube is finally placed in a 37° C. incubator, and the infection supernatant is collected at specific infection time points (time points: 2 hours, and 1, 2, 3, 5, 7 days after infection). The infection mixture is taken out at the specific time points, centrifuged with a centrifuge (600 rpm, 6 minutes), the infection supernatant is separated, and a viral titer is assayed by viral plaque assay and an expression of cytokines is assayed by enzyme combined with immunosorbent assay. […]

[2] = system: IL-6; test: IL-6 expression in infected supernatant of DENV-infected Meg-01 cells, enzyme immunoassay; type: cell-based, human; conditions: after dengue virus infection, extract at IC10 concentration
Protocol: as §1

[3] = system: Meg-01 cells; test: Cell viability assay (WST-1) of Meg-01 cells; type: cell-based, human; conditions: for IC10 (concentration that produces 10% inhibition of cell viability): Meg-01 cells, co-culture 7 days, WST-1, OD 440 nm; for effect on cell viability: 400 μg/mL; for effect on cell viability / toxicity on Meg-01 cells (cell viability): 7 days; for toxicity on Meg-01 cells (cell viability): low concentrations 25 μg/mL, 50 μg/mL
Protocol: Meg-01 cell strains (CRL2021, ATCC, human myelo-megakaryocyte leukemia cell strains) are cultured in a RPMI medium with 10% fetal bovine serum, when a cell density reaches 80-90%, the cell sap can be withdrawn into a centrifuge tube, after being centrifuged in a centrifuge (600 rpm, 6 minutes), then remove the supernatant, and re-lyse the centrifuged cells with an appropriate amount of a culture medium for subculture or subsequent experiments.
1×10^3 Meg-01 cells are lysed in 100 μL of 10% fetal bovine serum in a RPMI culture medium and seeded into a 96-well U-shaped plate. Different concentrations of the Antrodia camphorata extract ZAC and the Antrodia camphorata extract YS-1 are added to the cells for co-culture at 37° C. for 7 days, while the cells added with dimethyl sulfoxide (DMSO) are used as an experimental control group.
Please refer to FIG. 1. FIG. 1 is a graph of viability of Meg-01 cells after adding the Antrodia camphorata extract according to one embodiment of the invention. The Meg-01 cells are co-cultured with different concentrations of the Antrodia camphorata extract ZAC or the Antrodia camphorata extract YS-1 respectively, and the group added with DMSO is used as an experimental control group. After the cells are co-cultured with the Antrodia camphorata extract for 7 days, WST-1 assay reagent is added to the cells and OD 440 nm value is collected to assay a toxicity of the drug on the cells, the cell group without addition of the Antrodia camphorata extract is regarded as an experimental control group, and the cell groups added with different concentrations of the Antrodia camphorata extract are regarded as experimental groups.

[4] = system: dengue virus type 2 (DENV-2), strain 16681; test: Dengue virus infection of Meg-01 cells, viral titer by plaque assay; type: cell-based; conditions: for dengue viral titer versus infected control: p value<0.0001
Protocol: 2×10^4 Meg-01 cells are lysed in a RPMI culture medium containing 10% fetal bovine serum for in vitro infection with dengue virus. The infection condition is 1 MOI, a total volume of virus sap and cell sap is 2 ml, and the selected virus is dengue virus type 2 (DENV-2), strain 16681. The infection mixture is cultured in a 37° C. incubator for 2 hours, and the tube is shaken once every 30 minutes to increase a chance of virus contacting the cells. After 2 hours, centrifuge (600 rpm, 6 minutes) with a centrifuge to remove the virus that is not in contact with the cells, and re-lyse the cells with an appropriate amount of a cell culture medium, and then divide the cells into a cell culture medium (2 ml) or into a cell culture medium additional added with the Antrodia camphorata extract ZAC and the Antrodia camphorata extract YS-1, the centrifuge tube is finally placed in a 37° C. incubator, and the infection supernatant is collected at specific infection time points (time points: 2 hours, and 1, 2, 3, 5, 7 days after infection). The infection mixture is taken out at the specific time points, centrifuged with a centrifuge (600 rpm, 6 minutes), the infection supernatant is separated, and a viral titer is assayed by viral plaque assay and an expression of cytokines is assayed by enzyme combined with immunosorbent assay.
7×10^5/well […] kidney epithelial cells (BHK cells) are lysed in 1.5 ml of a DMEM culture medium containing 5% fetal bovine serum and seeded on a 6-well plate. The virus solution to be tested will be serially diluted first. The preparation method is to add 100 μL of unknown virus solution to 900 μL of a DMEM culture medium containing 2% fetal bovine serum to achieve a 10-fold dilution. After the cells to be seeded are attached onto the plate, remove the culture medium, add 400 μL of the virus solution to be tested, and culture in a 37° C. incubator for 2 hours. The plate needs to be shaken once every 15 minutes so that the infection solution can evenly cover the cells. After two hours, the infection solution is removed, methylcellulose is added to limit a range of virus movement, and the plate is placed back into the 37° C. incubator to culture for 7 days. […] Finally, the dye is washed off with clean water, and a number of plaques formed is counted to calculate the viral titer. […]
2 hours after the […] cells are infected by dengue virus, centrifuge to remove excessive virus, and the cells are re-lysed in a cell culture medium containing the Antrodia camphorata extract ZAC (91.68 μg/mL) or the Antrodia camphorata extract YS-1 (176.51 μg/mL), respectively. […] Plaque assay will be used on the collected infected supernatant (n=3) to quantify a viral titer.

[5] = system: IFN-α; test: IFN-α expression in infected supernatant of DENV-infected Meg-01 cells, enzyme immunoassay; type: cell-based, human; conditions: 5th and 7th days after infection, extract at IC10 concentration; day 5 P value 0.0021
Protocol: as §1

Structure (SMILES) | expression of cellular inflammatory factor IL-8 [1] | expression of cellular inflammatory factor IL-6 [2] | IC10 (concentration that produces 10% inhibition of cell viability) [3] | effect on cell viability ([3]; higher concentrations 200 μg/mL) | toxicity on Meg-01 cells (cell viability) ([3]; 100 μg/mL) | dengue viral titer versus infected control ([4]; 176.51 μg/mL added after infection) | inhibitory effect on dengue virus (viral titer) ([4]; high dose 176.51 μg/mL compared with low dose 25 μg/mL) | inhibitory effect on dengue virus (viral titer) ([4]; low dose 25 μg/mL) | amount of secretion of IFN-α versus infected control [5] | effect on cell viability ([3]; higher concentrations 100 μg/mL, 200 μg/mL) | toxicity on Meg-01 cells (cell viability) [3] | dengue viral titer versus infected control ([4]; 91.68 μg/mL added 2 hours after infection, late stages of infection (5th to 7th days))
COc1cc(C)c(OC)c2c1OCO2 [YS-1, 4,7-dimethoxy-5-methyl-1,3-benzodioxole] | effectively reducing an expression | effectively reducing an expression | 176.512 µg/mL and 176.51 µg/mL | slight effect on cell viability | generally not toxic | significantly reducing the viral titer | better inhibitory effect on dengue virus | inhibitory effect on dengue virus | – | – | – | –
C=C(CC[C@@H](C)[C@H]1CC[C@H]2C3=C(C(=O)[C@H](O)[C@]12C)[C@@]1(C)CC[C@@H](O)[C@@H](C)[C@@H]1CC3=O)C(C)C(=O)O (stereo partly drawn) [ZAC, Zhankuic acid C] | effectively reducing an expression | effectively reducing an expression | 91.675 µg/mL and 91.68 µg/mL | – | – | – | – | – | significantly higher | slight effect on cell viability | generally has no toxicity | decreases significantly
